Measured values published in patent US12077503B2, “Substituted cyclic amides and their use as herbicides” (FMC CORPORATION, priority 2015, dated 2024).

Experiments:
Assay type in all cases: in vivo
[1] = tested on: redroot pigweed (Amaranthus retroflexus); assay: Test G Pre-Emergence Protocol; settings: Amaranthus retroflexus, pre-emergence, 312 h, evaluated after 13 days; for pest or weed control at 15.625 g/ha: 15.625 g ai/ha; for pest or weed control at 15.625 g/ha / pest or weed control at 250 g/ha: read-out: Pigweed, Redroot damage rating (100=total damage to plant; 0=no damage to plant); for pest or weed control at 62.5 g/ha: 62.5 g ai/ha, 100=total damage to plant, 0=no damage to plant, read-out: plant damage rating, Pigweed, Redroot; for pest or weed control at 250 g/ha: 250 g ai/ha
Summary of the method: (§1)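 Test compound in 0.5% Tween 20 acetone/water (50:50) was applied at three rates (15.625, 62.5, 250 g/ha) to soil sown one day earlier. After 13 days plants were scored for injury, where 0 means unaffected and 100 means completely damaged.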

[2] = tested on: velvetleaf (Abutilon theophrasti); assay: Test G Pre-Emergence Protocol; settings: Abutilon theophrasti, pre-emergence, 312 h, evaluated after 13 days; for pest or weed control at 15.625 g/ha: 15.625 g ai/ha; for pest or weed control at 15.625 g/ha / pest or weed control at 250 g/ha: read-out: Velvetleaf damage rating (100=total damage to plant; 0=no damage to plant); for pest or weed control at 62.5 g/ha: 62.5 g ai/ha, 100=total damage to plant, 0=no damage to plant, read-out: plant damage rating, Velvetleaf; for pest or weed control at 250 g/ha: 250 g ai/ha
Summary of the method: as §1

[3] = tested on: barnyardgrass (Echinochloa crus-galli); assay: Test G Pre-Emergence Protocol; settings: Echinochloa crus-galli, pre-emergence, 312 h, evaluated after 13 days; for pest or weed control at 15.625 g/ha: 15.625 g ai/ha, read-out: Barnyard grass damage rating (100=total damage to plant; 0=no damage to plant); for pest or weed control at 62.5 g/ha: 62.5 g ai/ha, 100=total damage to plant, 0=no damage to plant, read-out: plant damage rating, Barnyardgrass; for pest or weed control at 250 g/ha: 250 g ai/ha, read-out: Barnyardgrass damage rating (100=total damage to plant; 0=no damage to plant)
Summary of the method: as §1

[4] = tested on: giant foxtail (Setaria faberi); assay: Test G Pre-Emergence Protocol; settings: Setaria faberi, pre-emergence, 312 h, evaluated after 13 days; for pest or weed control at 15.625 g/ha: 15.625 g ai/ha; for pest or weed control at 15.625 g/ha / pest or weed control at 250 g/ha: read-out: Foxtail, Giant damage rating (100=total damage to plant; 0=no damage to plant); for pest or weed control at 62.5 g/ha: 62.5 g ai/ha, 100=total damage to plant, 0=no damage to plant, read-out: plant damage rating, Foxtail, Giant; for pest or weed control at 250 g/ha: 250 g ai/ha
Summary of the method: as §1

corn (Zea mays) [5] = assay: Test G Pre-Emergence Protocol; settings: Zea mays, pre-emergence, 312 h, evaluated after 13 days; for plant injury at 15.625 g/ha: 15.625 g ai/ha; for plant injury at 15.625 g/ha / plant injury at 250 g/ha: read-out: Corn damage rating (100=total damage to plant; 0=no damage to plant); for plant injury at 62.5 g/ha: 62.5 g ai/ha, 100=total damage to plant, 0=no damage to plant, read-out: plant damage rating, Corn; for plant injury at 250 g/ha: 250 g ai/ha
Summary of the method: as §1

[6] = tested on: ivy-leaved morning glory (Ipomoea hederacea); assay: Test G Pre-Emergence Protocol; settings: Ipomoea, pre-emergence, 312 h, evaluated after 13 days; for pest or weed control at 15.625 g/ha: 15.625 g ai/ha, read-out: Morning-glory, Ivy-leaved damage rating (100=total damage to plant; 0=no damage to plant); for pest or weed control at 62.5 g/ha: 62.5 g ai/ha, 100=total damage to plant, 0=no damage to plant, read-out: plant damage rating, Morningglory, Ivy-leaved; for pest or weed control at 250 g/ha: 250 g ai/ha, read-out: Morningglory, Ivy-leaved damage rating (100=total damage to plant; 0=no damage to plant)
Summary of the method: as §1

[7] = tested on: redroot pigweed (Amaranthus retroflexus); assay: Test G Post-Emergence Protocol; settings: Amaranthus retroflexus, post-emergence, 312 h; for pest or weed control at 15.625 g/ha: 15.625 g ai/ha, evaluated after 13 days (100=total damage to plant; 0=no damage to plant), read-out: Pigweed, Redroot damage rating; for pest or weed control at 62.5 g/ha: 62.5 g ai/ha, read-out: Pigweed, Redroot damage rating (100=total damage to plant; 0=no damage to plant); for pest or weed control at 62.5 g/ha / pest or weed control at 250 g/ha: evaluated after 13 days; for pest or weed control at 250 g/ha: 250 g ai/ha, read-out: damage to plant, Pigweed, Redroot (100=total damage to plant; 0=no damage to plant)
Summary of the method: (§2)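 Foliar application was made 8 days after sowing, using an aqueous spray of the active in acetone/water (50:50) with 0.5% Tween 20, at doses of 15.625, 62.5 or 250 g/ha. Injury was assessed 13 days later, where 100 meant the plant was fully damaged.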

[8] = tested on: velvetleaf (Abutilon theophrasti); assay: Test G Post-Emergence Protocol; settings: Abutilon theophrasti, post-emergence, 312 h; for pest or weed control at 15.625 g/ha: 15.625 g ai/ha, evaluated after 13 days (100=total damage to plant; 0=no damage to plant), read-out: Velvetleaf damage rating; for pest or weed control at 62.5 g/ha: 62.5 g ai/ha, read-out: Velvetleaf damage rating (100=total damage to plant; 0=no damage to plant); for pest or weed control at 62.5 g/ha / pest or weed control at 250 g/ha: evaluated after 13 days; for pest or weed control at 250 g/ha: 250 g ai/ha, read-out: damage to plant, Velvetleaf (100=total damage to plant; 0=no damage to plant)
Summary of the method: as §2

[9] = tested on: barnyardgrass (Echinochloa crus-galli); assay: Test G Post-Emergence Protocol; settings: Echinochloa crus-galli, post-emergence, 312 h; for pest or weed control at 15.625 g/ha: 15.625 g ai/ha, evaluated after 13 days (100=total damage to plant; 0=no damage to plant), read-out: Barnyardgrass damage rating; for pest or weed control at 62.5 g/ha: 62.5 g ai/ha, read-out: Barnyardgrass damage rating (100=total damage to plant; 0=no damage to plant); for pest or weed control at 62.5 g/ha / pest or weed control at 250 g/ha: evaluated after 13 days; for pest or weed control at 250 g/ha: 250 g ai/ha, read-out: damage to plant, Barnyardgrass (100=total damage to plant; 0=no damage to plant)
Summary of the method: as §2

[10] = tested on: giant foxtail (Setaria faberi); assay: Test G Post-Emergence Protocol; settings: Setaria faberi, post-emergence, 312 h; for pest or weed control at 15.625 g/ha: 15.625 g ai/ha, evaluated after 13 days (100=total damage to plant; 0=no damage to plant), read-out: Foxtail, Giant damage rating; for pest or weed control at 62.5 g/ha: 62.5 g ai/ha, read-out: Foxtail, Giant damage rating (100=total damage to plant; 0=no damage to plant); for pest or weed control at 62.5 g/ha / pest or weed control at 250 g/ha: evaluated after 13 days; for pest or weed control at 250 g/ha: 250 g ai/ha, read-out: damage to plant, Foxtail, Giant (100=total damage to plant; 0=no damage to plant)
Summary of the method: as §2

corn (Zea mays) [11] = assay: Test G Post-Emergence Protocol; settings: Zea mays, post-emergence, 312 h; for plant injury at 15.625 g/ha: 15.625 g ai/ha, evaluated after 13 days (100=total damage to plant; 0=no damage to plant), read-out: Corn damage rating; for plant injury at 62.5 g/ha: 62.5 g ai/ha, read-out: Corn damage rating (100=total damage to plant; 0=no damage to plant); for plant injury at 62.5 g/ha / plant injury at 250 g/ha: evaluated after 13 days; for plant injury at 250 g/ha: 250 g ai/ha, read-out: damage to plant, Corn (100=total damage to plant; 0=no damage to plant)
Summary of the method: as §2

[12] = tested on: ivy-leaved morning glory (Ipomoea hederacea); assay: Test G Post-Emergence Protocol; settings: Ipomoea, post-emergence, 312 h; for pest or weed control at 15.625 g/ha: 15.625 g ai/ha, evaluated after 13 days (100=total damage to plant; 0=no damage to plant), read-out: Morningglory, Ivy-leaved damage rating; for pest or weed control at 62.5 g/ha: 62.5 g ai/ha, read-out: Morningglory, Ivy-leaved damage rating (100=total damage to plant; 0=no damage to plant); for pest or weed control at 62.5 g/ha / pest or weed control at 250 g/ha: evaluated after 13 days; for pest or weed control at 250 g/ha: 250 g ai/ha, read-out: damage to plant, Morningglory, Ivy-leaved (100=total damage to plant; 0=no damage to plant)
Summary of the method: as §2

Row | SMILES | pest or weed control at 15.625 g/ha [1] [%] | pest or weed control at 62.5 g/ha [1] [%] | pest or weed control at 250 g/ha [1] [%] | pest or weed control at 15.625 g/ha [2] [%] | pest or weed control at 62.5 g/ha [2] [%] | pest or weed control at 250 g/ha [2] [%] | pest or weed control at 15.625 g/ha [3] [%] | pest or weed control at 62.5 g/ha [3] [%] | pest or weed control at 250 g/ha [3] [%] | pest or weed control at 15.625 g/ha [4] [%] | pest or weed control at 62.5 g/ha [4] [%] | pest or weed control at 250 g/ha [4] [%] | plant injury at 15.625 g/ha (corn (Zea mays) [5]) [%] | plant injury at 62.5 g/ha (corn (Zea mays) [5]) [%] | plant injury at 250 g/ha (corn (Zea mays) [5]) [%] | pest or weed control at 15.625 g/ha [6] [%] | pest or weed control at 62.5 g/ha [6] [%] | pest or weed control at 250 g/ha [6] [%] | pest or weed control at 15.625 g/ha [7] [%] | pest or weed control at 62.5 g/ha [7] [%] | also measured
1 | COC(=O)c1cc([C@H]2CN(C)C(=O)[C@@H]2C(=O)Nc2ccccc2F)ccc1Cl (racemic) [Compound 1460] | 0 | 40 | 70 | 0 | 0 | 0 | 0 | 70 | 90 | 10 | 80 | 90 | 0 | 0 | 10 | 0 | 40 | 50 | 0 | 10 | pest or weed control at 250 g/ha [7]: 20%; pest or weed control at 15.625 g/ha [8]: 0%; pest or weed control at 62.5 g/ha [8]: 0%; pest or weed control at 250 g/ha [8]: 10%; pest or weed control at 15.625 g/ha [9]: 20%; pest or weed control at 62.5 g/ha [9]: 30%; pest or weed control at 250 g/ha [9]: 60%; pest or weed control at 15.625 g/ha [10]: 40%; pest or weed control at 62.5 g/ha [10]: 70%; pest or weed control at 250 g/ha [10]: 70%; plant injury at 15.625 g/ha (corn (Zea mays) [11]): 10%; plant injury at 62.5 g/ha (corn (Zea mays) [11]): 0%; plant injury at 250 g/ha (corn (Zea mays) [11]): 40%; pest or weed control at 15.625 g/ha [12]: 0%; pest or weed control at 62.5 g/ha [12]: 0%; pest or weed control at 250 g/ha [12]: 10%
2 | CN1C[C@H](c2cccc(C#N)c2)[C@@H](C(=O)Nc2ccccc2F)C1=O (racemic) [Compound 1471] | 0 | 0 | 0 | 0 | 0 | 0 | 10 | 70 | 90 | 40 | 80 | 90 | 0 | 0 | 0 | 0 | 0 | 20 | 10 | 0 | pest or weed control at 250 g/ha [7]: 20%; pest or weed control at 15.625 g/ha [8]: 10%; pest or weed control at 62.5 g/ha [8]: 0%; pest or weed control at 250 g/ha [8]: 10%; pest or weed control at 15.625 g/ha [9]: 30%; pest or weed control at 62.5 g/ha [9]: 30%; pest or weed control at 250 g/ha [9]: 50%; pest or weed control at 15.625 g/ha [10]: 10%; pest or weed control at 62.5 g/ha [10]: 60%; pest or weed control at 250 g/ha [10]: 70%; plant injury at 15.625 g/ha (corn (Zea mays) [11]): 10%; plant injury at 62.5 g/ha (corn (Zea mays) [11]): 0%; plant injury at 250 g/ha (corn (Zea mays) [11]): 0%; pest or weed control at 15.625 g/ha [12]: 10%; pest or weed control at 62.5 g/ha [12]: 0%; pest or weed control at 250 g/ha [12]: 20%
